Measurements as given in the supplement of paper PMC10307832.

Legend:
Test in all cases: relative viability (nuclei count vs DMSO), 5 days (fraction); higher = more cells survive
[1] = compound: O[C@H]1CC[C@H](Nc2ncc3nc(Nc4c(F)cc(F)cc4F)n([C@H]4CCOC4)c3n2)CC1 [Tanzisertib] + O=C(CCCCCCC(=O)Nc1ccccc1)NO [Vorinostat] (partner 1 µM)
Outline: (§1)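 Lung cancer cell lines were seeded in 1536-well plates and dosed by pin tool the next day, with either a single drug or a fixed anchor-drug dose combined with five library-drug doses (not always all listed) spaced in √10 steps. Five days later, one step fixed the cells and stained their nuclei (final 0.05% Triton X-100, 1% formaldehyde, 1 ug/ml Hoechst), and nuclei were counted on 4× images. Relative viability is the nuclei count in treated wells divided by the count in vehicle wells, and each value is the median of duplicate plates.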

[2] = compound: O[C@H]1CC[C@H](Nc2ncc3nc(Nc4c(F)cc(F)cc4F)n([C@H]4CCOC4)c3n2)CC1 [Tanzisertib] + CC(=O)Nc1cccc(-n2c(=O)n(C3CC3)c(=O)c3c(Nc4ccc(I)cc4F)n(C)c(=O)c(C)c32)c1 [Trametinib] (partner 0.02 µM)
Outline: as §1

[3] = compound: O[C@H]1CC[C@H](Nc2ncc3nc(Nc4c(F)cc(F)cc4F)n([C@H]4CCOC4)c3n2)CC1 [Tanzisertib] + Cc1cc(Nc2cc(N3CCN(C)CC3)nc(Sc3ccc(NC(=O)C4CC4)cc3)n2)n[nH]1 [Tozasertib] (partner 0.1 µM)
Outline: as §1

[4] = compound: C[C@@H](N)c1ccc(C(=O)Nc2ccnc3[nH]ccc23)cc1 + Cc1nc(Nc2ncc(C(=O)Nc3c(C)cccc3Cl)s2)cc(N2CCN(CCO)CC2)n1 [Dasatinib] (partner 0.075 µM)
Outline: as §1

Question: With UMC-11 as the cell line, how does the relative viability ([1]; first compound 0.08 µM) read?
Answer: 0.41

Question: And the relative viability ([1]; first compound 0.253 µM)?
Answer: 0.401

Question: What about the relative viability ([1]; first compound 0.8 µM) of the same cell line?
Answer: 0.438

Question: What about the relative viability ([1]; first compound 2.53 µM) of the same cell line?
Answer: 0.404

Question: What about the relative viability ([1]; first compound 8 µM) of the same cell line?
Answer: 0.388

Question: And the relative viability ([2]; first compound 0.08 µM)?
Answer: 0.735

Question: And the relative viability ([2]; first compound 0.253 µM)?
Answer: 0.695

Question: And the relative viability ([2]; first compound 0.8 µM)?
Answer: 0.759

Question: What about the relative viability ([2]; first compound 2.53 µM) of the same cell line?
Answer: 0.719

Question: What about the relative viability ([2]; first compound 8 µM) of the same cell line?
Answer: 0.764

Question: What about the relative viability ([3]; first compound 0.08 µM) of the same cell line?
Answer: 0.208

Question: What about the relative viability ([3]; first compound 0.253 µM) of the same cell line?
Answer: 0.191

Question: And the relative viability ([3]; first compound 0.8 µM)?
Answer: 0.212

Question: And the relative viability ([3]; first compound 2.53 µM)?
Answer: 0.215

Question: And the relative viability ([3]; first compound 8 µM)?
Answer: 0.209

Question: What about the relative viability ([4]; first compound 0.04 µM) of the same cell line?
Answer: 0.543

Question: What about the relative viability ([4]; first compound 0.1265 µM) of the same cell line?
Answer: 0.482

Question: What about the relative viability ([4]; first compound 0.4 µM) of the same cell line?
Answer: 0.58

Question: What about the relative viability ([4]; first compound 1.265 µM) of the same cell line?
Answer: 0.518

Question: What about the relative viability ([4]; first compound 4 µM) of the same cell line?
Answer: 0.527
